{"source": "BindingDB's records for patent US20250248973", "about": "(Corbus Pharmaceuticals, 2025)", "target": "Isoform 3 of Cannabinoid receptor 1 (Human, UniProt P21554)", "sequence (P21554 as listed by the source)": "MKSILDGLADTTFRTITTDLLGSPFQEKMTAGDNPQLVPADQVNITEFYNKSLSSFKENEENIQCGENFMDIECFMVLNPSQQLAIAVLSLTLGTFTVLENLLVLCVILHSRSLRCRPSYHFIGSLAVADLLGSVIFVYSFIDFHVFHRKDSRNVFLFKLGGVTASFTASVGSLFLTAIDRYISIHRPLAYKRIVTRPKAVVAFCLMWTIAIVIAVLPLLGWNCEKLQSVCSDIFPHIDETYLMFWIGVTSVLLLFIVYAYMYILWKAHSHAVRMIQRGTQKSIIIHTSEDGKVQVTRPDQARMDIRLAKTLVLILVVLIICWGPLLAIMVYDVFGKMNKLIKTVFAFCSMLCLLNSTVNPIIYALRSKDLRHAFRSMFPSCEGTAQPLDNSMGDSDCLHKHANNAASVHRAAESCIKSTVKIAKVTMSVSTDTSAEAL", "assay": "Biochemical Assay", "experimental": "hCB1/hCB1 b Gai Cyclic AMP (cAMP) Assays: Cells were seeded in a 384-well plate at an appropriate density from frozen cells. The cAMP assays were performed according to the manufacturer's protocol using MULTISCREEN™ TR-FRET cAMP 1.0 No Wash Assay Kit. Cells (hCB1 or hCB1 b) were pre-incubated with customer compounds for 30 minutes at rt followed by addition of EC80 CP55940 concentration and Forskolin. Cells were then incubated for 20 minutes at 37C. The reaction was terminated by sequentially adding sequentially adding MULTISCREEN™ Eu-labeled cAMP and MULTISCREEN™ 650-labeled anti-cAMP antibody in lysis buffer. The plate was then incubated at rt for 30 minutes before reading fluorescent emissions at 620 nm and 665 with excitation at 314 nm on FlexStation III (Molecular Devices).", "data": [{"smiles": "C#Cc1cccc(S(=O)(=O)N=C(NCCS(N)(=O)=O)N2C[C@H](c3ccccc3)C(c3ccc(Cl)cc3)=N2)c1", "note": "[US20250248973, Compound 35]", "values": [{"measurement": "IC50", "result": "< 100", "unit": "nM"}]}]}
